{"source": "patent US9113629B2", "about": "“4-amino-6-(4-substituted-phenyl)-picolinates and 6-amino-2-(4-substituted-phenyl)-pyrimidine-4-carboxylates and their use as herbicides” (DOW AGROSCIENCES LLC, priority 2013, dated 2015)", "key": {"[1]": {"test_system": "Key Grass and Sedge Weeds as well as Grass Crops", "assay": "Post-emergent Test II herbicidal activity (Table 6)", "assay_type": "in vivo", "settings": "post-emergence, 336 h; for pest or weed control at 70 g/ha: 70 g ai/ha; for pest or weed control at 140 g/ha: 140 g ai/ha", "outline": "(§1)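 Scoring: visual, 0–100% injury at 14 d versus untreated. Treatment: overhead track spray, 187 L/ha, onto plants at the first–second true leaf stage. Growth: greenhouse, ~15 h light, 23–29 °C day, 22–28 °C night.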"}, "[2]": {"test_system": "Key Broadleaf Weed and Crop Species", "assay": "Post-emergent Test II herbicidal activity (Table 5)", "assay_type": "in vivo", "settings": "post-emergence, 336 h, 14 days after application; for pest or weed control at 70 g/ha: application rate 70 g ai/ha; for pest or weed control at 140 g/ha: application rate 140 g ai/ha", "outline": "as §1"}, "[3]": {"settings": "CYPES: yellow nutsedge (Cyperus esculentus), read-out: Visual Growth Reduction (%) 14 Days After Application, CYPES"}, "[4]": {"settings": "DIGSA: crabgrass (Digitaria sanguinalis), read-out: Visual Growth Reduction (%) 14 Days After Application, DIGSA"}, "[5]": {"settings": "ECHCG: barnyardgrass (Echinochloa crus-galli), read-out: Visual Growth Reduction (%) 14 Days After Application, ECHCG"}, "[6]": {"settings": "ORYSA: rice (Oryza sativa), crop, read-out: Visual Growth Reduction (%) 14 Days After Application, ORYSA"}, "[7]": {"settings": "SETFA: giant foxtail (Setaria faberi), read-out: Visual Growth Reduction (%) 14 Days After Application, SETFA"}, "[8]": {"settings": "SORVU: grain sorghum (Sorghum vulgare), read-out: Visual Growth Reduction (%) 14 Days After Application, SORVU"}, "[9]": {"settings": "TRZSS (wheat, Triticum aestivum), crop, read-out: Visual Growth Reduction (%) 14 Days After Application, TRZSS"}, "[10]": {"settings": "ZEAMX: maize, corn (Zea mays), crop, read-out: Visual Growth Reduction (%) 14 Days After Application, ZEAMX"}, "[11]": {"settings": "ABUTH: velvetleaf (Abutilon theophrasti), read-out: Visual Growth Reduction (%) 14 Days After Application, ABUTH"}, "[12]": {"settings": "AMARE: redroot pigweed (Amaranthus retroflexus), read-out: Visual Growth Reduction (%) 14 Days After Application, AMARE"}, "[13]": {"settings": "BRSNN: oilseed-rape, canola (Brassica napus), read-out: Visual Growth Reduction (%) 14 Days After Application, BRSNN"}, "[14]": {"settings": "CHEAL: lambsquarters (Chenopodium album), read-out: Visual Growth Reduction (%) 14 Days After Application, CHEAL"}, "[15]": {"settings": "EPHHL: wild poinsettia (Euphorbia heterophylla), read-out: Visual Growth Reduction (%) 14 Days After Application, EPHHL"}, "[16]": {"settings": "HELAN: sunflower (Helianthus annuus), read-out: Visual Growth Reduction (%) 14 Days After Application, HELAN"}, "[17]": {"settings": "VIOTR: wild pansy (Viola tricolor), read-out: Visual Growth Reduction (%) 14 Days After Application, VIOTR"}}, "note": "Read-outs that look alike come from different tables or passages of the source."}
{"molecule": "Nc1c(F)c(-c2ccc(Br)cc2)nc(C(=O)O)c1Cl", "note": "[Compound 20]", "values": [{"measurement": "pest or weed control at 70 g/ha", "setting": "[1]; [3]", "result": "95 to 100", "unit": "%"}, {"measurement": "pest or weed control at 140 g/ha", "setting": "[1]; [3]", "result": "95 to 100", "unit": "%"}, {"measurement": "pest or weed control at 70 g/ha", "setting": "[1]; [4]", "result": "95 to 100", "unit": "%"}, {"measurement": "pest or weed control at 140 g/ha", "setting": "[1]; [4]", "result": "95 to 100", "unit": "%"}, {"measurement": "pest or weed control at 70 g/ha", "setting": "[1]; [5]", "result": "95 to 100", "unit": "%"}, {"measurement": "pest or weed control at 140 g/ha", "setting": "[1]; [5]", "result": "95 to 100", "unit": "%"}, {"measurement": "pest or weed control at 70 g/ha", "setting": "[1]; [6]", "result": "60 to 74", "unit": "%"}, {"measurement": "pest or weed control at 140 g/ha", "setting": "[1]; [6]", "result": "60 to 74", "unit": "%"}, {"measurement": "pest or weed control at 70 g/ha", "setting": "[1]; [7]", "result": "95 to 100", "unit": "%"}, {"measurement": "pest or weed control at 140 g/ha", "setting": "[1]; [7]", "result": "95 to 100", "unit": "%"}, {"measurement": "pest or weed control at 70 g/ha", "setting": "[1]; [8]", "result": "95 to 100", "unit": "%"}, {"measurement": "pest or weed control at 140 g/ha", "setting": "[1]; [8]", "result": "95 to 100", "unit": "%"}, {"measurement": "pest or weed control at 70 g/ha", "setting": "[1]; [9]", "result": "75 to 84", "unit": "%"}, {"measurement": "pest or weed control at 140 g/ha", "setting": "[1]; [9]", "result": "75 to 84", "unit": "%"}, {"measurement": "pest or weed control at 70 g/ha", "setting": "[1]; [10]", "result": "95 to 100", "unit": "%"}, {"measurement": "pest or weed control at 140 g/ha", "setting": "[1]; [10]", "result": "95 to 100", "unit": "%"}, {"measurement": "pest or weed control at 70 g/ha", "setting": "[2]; [11]", "result": "95 to 100", "unit": "%"}, {"measurement": "pest or weed control at 140 g/ha", "setting": "[2]; [11]", "result": "95 to 100", "unit": "%"}, {"measurement": "pest or weed control at 70 g/ha", "setting": "[2]; [12]", "result": "95 to 100", "unit": "%"}, {"measurement": "pest or weed control at 140 g/ha", "setting": "[2]; [12]", "result": "95 to 100", "unit": "%"}, {"measurement": "pest or weed control at 70 g/ha", "setting": "[2]; [13]", "result": "95 to 100", "unit": "%"}, {"measurement": "pest or weed control at 140 g/ha", "setting": "[2]; [13]", "result": "95 to 100", "unit": "%"}, {"measurement": "pest or weed control at 70 g/ha", "setting": "[2]; [14]", "result": "95 to 100", "unit": "%"}, {"measurement": "pest or weed control at 140 g/ha", "setting": "[2]; [14]", "result": "95 to 100", "unit": "%"}, {"measurement": "pest or weed control at 70 g/ha", "setting": "[2]; [15]", "result": "95 to 100", "unit": "%"}, {"measurement": "pest or weed control at 140 g/ha", "setting": "[2]; [15]", "result": "95 to 100", "unit": "%"}, {"measurement": "pest or weed control at 70 g/ha", "setting": "[2]; [16]", "result": "95 to 100", "unit": "%"}, {"measurement": "pest or weed control at 140 g/ha", "setting": "[2]; [16]", "result": "95 to 100", "unit": "%"}, {"measurement": "pest or weed control at 70 g/ha", "setting": "[2]; [17]", "result": "95 to 100", "unit": "%"}, {"measurement": "pest or weed control at 140 g/ha", "setting": "[2]; [17]", "result": "95 to 100", "unit": "%"}]}
